The results in this text go back to article PMC6199744, “Development of Chemical Proteomics for the Folateome and Analysis of the Kinetoplastid Folateome” (ACS Infectious Diseases, 2018).

Molecules are shown by their SMILES. Where two headings read alike, the source gives them in different places.

What all share (format): binding
For assay [1], the target named is T1, HeLa cell extract proteins (Homo sapiens, UniProt P11177).
T1 construct: endogenous in cells; host or cells: HeLa cell extract
T1 sequence (P11177 31-359): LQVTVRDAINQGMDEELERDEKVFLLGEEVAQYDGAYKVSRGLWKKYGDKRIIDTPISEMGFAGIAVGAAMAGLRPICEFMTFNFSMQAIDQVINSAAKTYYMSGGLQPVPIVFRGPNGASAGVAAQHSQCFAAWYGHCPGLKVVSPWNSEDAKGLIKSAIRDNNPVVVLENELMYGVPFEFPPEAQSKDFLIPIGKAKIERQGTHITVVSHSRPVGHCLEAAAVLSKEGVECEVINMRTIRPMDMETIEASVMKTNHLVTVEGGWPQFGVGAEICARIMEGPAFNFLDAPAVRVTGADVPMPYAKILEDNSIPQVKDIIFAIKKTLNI

The target in assay [2] is T2, HeLa cell extract proteins (Homo sapiens, UniProt P11413).
T2 construct: endogenous in cells; host or cells: HeLa cell extract

In assay [3] the target is T3, HeLa cell extract proteins (Homo sapiens, UniProt P40616).
T3 construct: endogenous in cells; host or cells: HeLa cell extract
T3 sequence (P40616 1-181): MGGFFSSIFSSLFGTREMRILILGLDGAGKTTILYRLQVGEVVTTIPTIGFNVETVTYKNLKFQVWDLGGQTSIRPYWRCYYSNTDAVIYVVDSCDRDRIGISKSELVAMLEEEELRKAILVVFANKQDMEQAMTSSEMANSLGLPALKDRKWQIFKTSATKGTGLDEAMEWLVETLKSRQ

Assay [4] deals with T4, HeLa cell extract proteins (Homo sapiens, UniProt P51659).
T4 construct: endogenous in cells; host or cells: HeLa cell extract
T4 sequence (P51659 1-736): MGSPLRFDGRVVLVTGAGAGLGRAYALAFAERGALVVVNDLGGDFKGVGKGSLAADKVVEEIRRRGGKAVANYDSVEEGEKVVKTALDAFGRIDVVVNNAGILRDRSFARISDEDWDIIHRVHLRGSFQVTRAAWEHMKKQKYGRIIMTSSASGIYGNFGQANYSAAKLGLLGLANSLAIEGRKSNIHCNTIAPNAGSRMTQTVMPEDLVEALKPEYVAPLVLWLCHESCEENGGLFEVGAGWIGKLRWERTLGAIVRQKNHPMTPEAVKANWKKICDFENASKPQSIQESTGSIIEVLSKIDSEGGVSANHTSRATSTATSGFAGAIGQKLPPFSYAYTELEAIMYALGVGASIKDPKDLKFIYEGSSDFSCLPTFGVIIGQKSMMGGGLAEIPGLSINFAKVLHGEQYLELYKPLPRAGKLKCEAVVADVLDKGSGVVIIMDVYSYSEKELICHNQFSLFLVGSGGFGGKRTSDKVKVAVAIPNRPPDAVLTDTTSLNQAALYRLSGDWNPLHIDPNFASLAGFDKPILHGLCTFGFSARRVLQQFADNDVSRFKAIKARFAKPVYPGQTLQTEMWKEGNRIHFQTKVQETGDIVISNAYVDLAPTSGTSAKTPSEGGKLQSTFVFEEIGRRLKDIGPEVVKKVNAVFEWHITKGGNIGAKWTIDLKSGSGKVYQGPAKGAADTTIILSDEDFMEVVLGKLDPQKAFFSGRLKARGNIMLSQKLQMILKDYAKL

For assay [5], the target named is T5, HeLa cell extract proteins (Homo sapiens, UniProt P53999).
T5 construct: endogenous in cells; host or cells: HeLa cell extract

Assay [6] concerns the target T6, HeLa cell extract proteins (Homo sapiens, UniProt P68366).
T6 construct: endogenous in cells; host or cells: HeLa cell extract

In assay [7] the target is T7, HeLa cell extract proteins (Homo sapiens, UniProt Q12931).
T7 construct: endogenous in cells; host or cells: HeLa cell extract
T7 sequence (Q12931 60-704): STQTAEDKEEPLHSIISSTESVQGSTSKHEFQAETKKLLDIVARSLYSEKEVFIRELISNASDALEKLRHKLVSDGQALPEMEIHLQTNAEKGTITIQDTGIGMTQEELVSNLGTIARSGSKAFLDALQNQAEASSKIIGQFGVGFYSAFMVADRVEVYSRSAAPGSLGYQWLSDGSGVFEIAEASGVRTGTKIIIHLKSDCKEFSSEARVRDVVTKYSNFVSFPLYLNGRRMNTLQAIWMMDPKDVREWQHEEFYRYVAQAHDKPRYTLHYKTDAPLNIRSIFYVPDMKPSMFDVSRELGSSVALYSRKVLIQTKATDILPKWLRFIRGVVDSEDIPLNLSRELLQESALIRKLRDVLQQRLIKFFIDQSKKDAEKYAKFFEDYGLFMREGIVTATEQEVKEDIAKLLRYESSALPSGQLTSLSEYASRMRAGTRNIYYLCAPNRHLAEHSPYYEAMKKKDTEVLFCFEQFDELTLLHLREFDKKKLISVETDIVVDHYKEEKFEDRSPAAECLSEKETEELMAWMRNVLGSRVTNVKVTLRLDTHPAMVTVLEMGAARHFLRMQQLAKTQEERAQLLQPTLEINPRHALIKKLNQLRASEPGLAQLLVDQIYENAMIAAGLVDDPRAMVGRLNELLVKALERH

Assay [8] concerns the target T8, HeLa cell extract proteins (Homo sapiens, UniProt Q16658).
T8 construct: endogenous in cells; host or cells: HeLa cell extract

The target in assay [9] is T9, HeLa cell extract proteins (Homo sapiens, UniProt Q16881).
T9 construct: endogenous in cells; host or cells: HeLa cell extract
T9 sequence (Q16881 1-649): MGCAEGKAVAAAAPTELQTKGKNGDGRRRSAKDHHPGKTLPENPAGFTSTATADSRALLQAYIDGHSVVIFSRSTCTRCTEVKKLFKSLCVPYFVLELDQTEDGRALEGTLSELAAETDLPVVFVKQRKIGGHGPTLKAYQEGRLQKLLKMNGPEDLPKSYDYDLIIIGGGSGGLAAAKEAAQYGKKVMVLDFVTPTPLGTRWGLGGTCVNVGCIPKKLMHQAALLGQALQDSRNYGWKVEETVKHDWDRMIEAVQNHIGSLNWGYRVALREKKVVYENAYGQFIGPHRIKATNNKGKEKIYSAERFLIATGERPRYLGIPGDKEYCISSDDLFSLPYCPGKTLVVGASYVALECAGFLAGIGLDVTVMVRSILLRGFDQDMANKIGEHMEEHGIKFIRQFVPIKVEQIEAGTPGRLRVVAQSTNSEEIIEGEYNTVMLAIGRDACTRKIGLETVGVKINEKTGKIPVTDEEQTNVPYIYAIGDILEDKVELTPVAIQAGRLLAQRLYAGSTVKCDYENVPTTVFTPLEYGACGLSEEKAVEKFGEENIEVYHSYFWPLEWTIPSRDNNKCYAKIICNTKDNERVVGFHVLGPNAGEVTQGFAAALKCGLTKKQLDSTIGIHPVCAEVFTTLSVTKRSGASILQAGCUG

Where [10] appears, read: HeLa, protein HSD17B4 (CDNA FLJ55431, HIGHLY SIMILAR TO PEROXISOMAL MULTIFUNCTIONAL ENZYME TYPE 2).
[11] abbreviates: HeLa, protein PDHB (ISOFORM 1 OF PYRUVATE DEHYDROGENASE E1 COMPONENT SUBUNIT BETA, MITOCHONDRIAL PRECURSOR).

T2 sequence (P11413 whole entry): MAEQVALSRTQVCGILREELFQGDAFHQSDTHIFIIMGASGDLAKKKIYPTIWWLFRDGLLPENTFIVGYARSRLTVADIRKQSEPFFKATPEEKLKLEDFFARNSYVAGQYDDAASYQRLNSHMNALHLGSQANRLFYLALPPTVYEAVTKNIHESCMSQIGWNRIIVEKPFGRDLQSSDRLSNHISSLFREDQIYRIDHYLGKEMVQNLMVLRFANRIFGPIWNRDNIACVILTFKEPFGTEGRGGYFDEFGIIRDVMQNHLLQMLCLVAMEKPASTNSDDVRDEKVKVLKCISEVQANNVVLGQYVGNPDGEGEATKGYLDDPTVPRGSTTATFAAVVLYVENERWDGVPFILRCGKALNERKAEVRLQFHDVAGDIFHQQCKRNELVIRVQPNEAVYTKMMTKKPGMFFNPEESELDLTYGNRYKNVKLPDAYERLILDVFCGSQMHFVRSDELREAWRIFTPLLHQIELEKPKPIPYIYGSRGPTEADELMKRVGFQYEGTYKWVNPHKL
T6 sequence (P68366 whole entry): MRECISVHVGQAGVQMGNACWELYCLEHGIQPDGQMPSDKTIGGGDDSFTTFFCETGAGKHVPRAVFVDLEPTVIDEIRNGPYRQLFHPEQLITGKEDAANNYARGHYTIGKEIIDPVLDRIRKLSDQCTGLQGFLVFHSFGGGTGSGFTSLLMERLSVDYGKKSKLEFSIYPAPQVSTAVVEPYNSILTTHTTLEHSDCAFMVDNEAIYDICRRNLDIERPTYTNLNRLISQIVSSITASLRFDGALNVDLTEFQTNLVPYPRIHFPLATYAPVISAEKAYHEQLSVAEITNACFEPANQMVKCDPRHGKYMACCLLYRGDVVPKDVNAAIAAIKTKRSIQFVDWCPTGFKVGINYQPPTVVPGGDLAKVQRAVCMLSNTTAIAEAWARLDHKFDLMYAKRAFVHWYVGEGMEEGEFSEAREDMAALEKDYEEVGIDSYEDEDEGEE

Turning to `Nc1nc2c(c(=O)[nH]1)N(C=O)C(CNc1ccc(C(=O)N[C@@H](CCC(=O)O)C(=O)O)cc1)CN2` (stereo partly drawn) [LEU, leucovorin], the “fold changes relative to vehicle control” value in [1] (HeLa, protein PDHB (ISOFORM 1 OF PYRUVATE DEHYDROGENASE E1 COMPONENT SUBUNIT BETA, MIT[…])) came to 1.01; in [2] (HeLa, protein G6PD) it was 1.12; in assay [3] (protein ARL1, HeLa), 0.8; in [4] (setting [10]), 1.25; in [5] (HeLa, protein SUB1), 0.7; in assay [6] (HeLa, protein TUBA4A), 0.9. Besides, the “fold changes relative to vehicle control” value turned out to be 0.95 in [7] (protein TRAP1, HeLa); 0.95 in assay [8] (protein FSCN1, HeLa); 1.18 in [9] (HeLa, captured protein TXNRD1).

Turning to `Nc1nc2[nH]cc(CCc3ccc(C(=O)N[C@@H](CCC(=O)O)C(=O)O)cc3)c2c(=O)[nH]1` [PTX, pemetrexed], the “fold changes relative to vehicle control” value stood at 0.92 in [1]; 1.21 in assay [2]; 0.77 in assay [3]; 1.15 in [4]; 1.08 in [5]; 0.83 in assay [6]. In addition, the “fold changes relative to vehicle control” value is recorded as 1.02 in assay [7], 1.08 in assay [8] and 1.16 in assay [9].

On to `CCCCCCOc1ccc(Cc2cnc(N)nc2N)cc1` [compound 1], for which the “fold changes relative to vehicle control” value in [1] (protein PDHB, HeLa) was 0.97; in assay [2] (protein G6PD, HeLa) it was 1.15; in [3] (captured protein ARL1, HeLa) it was 0.95; in assay [4] (protein HSD17B4, HeLa) it was 1.07; in assay [5] (protein SUB1, HeLa), 0.91; in assay [6] (captured protein TUBA4A, HeLa), 0.95. The “fold changes relative to vehicle control” value stood at 1.27 in assay [7] (protein TRAP1, HeLa); 1.28 in assay [8] (protein FSCN1, HeLa); 1.27 in assay [9] (protein TXNRD1, HeLa).

Consider `CCCCCCOc1cccc(Cc2cnc(N)nc2N)c1` [compound 2], for which the “fold changes relative to vehicle control” value in assay [1] (protein PDHB, HeLa) stood at 0.38; in assay [2] (protein G6PD, HeLa), 1.89; in [3] (captured protein ARL1, HeLa) it was 1.09; in assay [4] (protein HSD17B4, HeLa), 1.22; in assay [5] (protein SUB1, HeLa), 0.99; in assay [6] (captured protein TUBA4A, HeLa), 0.88. The “fold changes relative to vehicle control” value in assay [7] (protein TRAP1, HeLa) is 1.77; in assay [8] (protein FSCN1, HeLa), 1.96; in assay [9] (protein TXNRD1, HeLa) it was 1.44.

Take `Nc1nc2cccc(-c3ccccc3)c2n1Cc1ccc(Cl)c(Cl)c1` [compound 3]: the “fold changes relative to vehicle control” value in [1] (protein PDHB, HeLa) is given as 0.99; in assay [2] (protein G6PD, HeLa), 1.03; in [3] (captured protein ARL1, HeLa), 1.06; in assay [4] (protein HSD17B4, HeLa) it was 1.14; in [5] (protein SUB1, HeLa), 1.13; in [6] (captured protein TUBA4A, HeLa), 1.01. Further, the “fold changes relative to vehicle control” value in assay [7] (protein TRAP1, HeLa) amounted to 1.06; in [8] (protein FSCN1, HeLa), 0.96; in assay [9] (protein TXNRD1, HeLa) it was 1.05.

On to `NCCOCCOCC(=O)Nc1nc2ncc(CNc3ccc(C(=O)NC(CCC(=O)O)C(=O)O)cc3)nc2c(=O)[nH]1` (stereo not drawn) [compound 6], for which the “fold changes relative to vehicle control” value in [1] (setting [11]) amounted to 0.87; in assay [2] (HeLa, protein G6PD) it was 1.32; in assay [3] (protein ARL1, HeLa) it was 0.9; in [4] (setting [10]), 1.02; in assay [5] (HeLa, protein SUB1) it was 1.03; in assay [6] (HeLa, protein TUBA4A), 0.98. The “fold changes relative to vehicle control” value in [7] (protein TRAP1, HeLa) came out at 1.2; in assay [8] (protein FSCN1, HeLa) it was 1.42; in [9] (HeLa, captured protein TXNRD1), 1.16.

Take `NCCCNc1ccc(C(=O)NC(CCC(=O)O)C(=O)O)cc1` (stereo not drawn) [compound 7]: the “fold changes relative to vehicle control” value in [1] (setting [11]) was found to be 0.92; in assay [2] (HeLa, protein G6PD), 1.09; in assay [3] (protein ARL1, HeLa), 1.06; in assay [4] (setting [10]), 1.07; in [5] (HeLa, protein SUB1), 0.87; in assay [6] (HeLa, protein TUBA4A), 0.99. The “fold changes relative to vehicle control” value in [7] (protein TRAP1, HeLa) was 1.01; in assay [8] (protein FSCN1, HeLa) it was 0.78; in assay [9] (HeLa, captured protein TXNRD1), 1.11.
